Legend:
[1] = system: pathogenic bacteria; conditions: general statement on antibacterial properties; cited from earlier work
[2] = system: Escherichia coli; test: Time needed to meet disinfection requirements, Escherichia coli; assay type: cell-based; conditions: concentration: ethanol 70%, benzalkonium bromide 1:1000, 1210 250 ppm, Embodiment 11 stock
[3] = system: Pseudomonas auerginosa; test: Time needed to meet disinfection requirements, Pseudomonas aeruginosa; assay type: cell-based; conditions: concentration: ethanol 70%, 1210 500 ppm, Embodiment 11 stock
[4] = system: Staphylococcus aureus; test: Time needed to meet disinfection requirements, Staphylococcus aureus; assay type: cell-based; conditions: concentration: ethanol 70%, benzalkonium bromide 1:1000, 1210 250 ppm, Embodiment 11 stock
[5] = system: Candida albicans; test: Time needed to meet disinfection requirements, Candida albicans; assay type: cell-based; conditions: concentration: ethanol 70%, iodophor 40 mg/L, Embodiment 11 stock
[6] = system: Mycobacterium tuberculosis; conditions: concentration: ethanol 70%

Compound | bactericidal concentration [1] [mol/L] | Time needed for meeting disinfection requirements [2] | Time needed for meeting disinfection requirements [3] [min] | Time needed for meeting disinfection requirements [4] [min] | Time needed for meeting disinfection requirements [5] [min] | Time needed for meeting disinfection requirements [6] [min]
O=C(O)CCCCCCCC(=O)O [Azelaic acid, azelaic acid] | 1 |  |  |  |  | 
CCO [Ethanol] |  | 0.5. min | 1 | 5 | 1 | 5
Benzalkonium bromide |  | 10 min |  | 5 |  | 

From US10743543B2, “Botanical disinfection composition, disinfectant and preparation method thereof” (priority 2016, dated 2020)
